Reference: patent US6545131B1, “Tissue specific prodrug” (priority 1997, dated 2003)
Starred links: 1 amine or outer side, 2 acyl side, 3 side chain; linkers in the order of their positions; H or OH if unused. Residues, ends and D or L forms follow the SMILES beside them. *: point of attachment. AMC = Cc1cc(=O)oc2cc(N*)ccc12; Morpholide = C1CN(*)CCO1; CO = O=C([*:1])[*:2]

What was measured:
[1] = target: T1, endoplasmic reticulum Ca2+-ATPase (SERCA), SR vesicles from rabbit skeletal muscle (Oryctolagus cuniculus, UniProt P04191); assay: SERCA inhibition: 45Ca2+ uptake to sarcoplasmic reticulum vesicles; assay type: biochemical; settings: mean (n=3) ± standard error; 5 μg/ml SR protein, free Ca2+ 100 nM, 4 min uptake; read-out: IC50 (50% inhibition of 45Ca2+ uptake to SR vesicles)
T1 construct: sarcoplasmic reticulum (SR) vesicles prepared from rabbit skeletal muscle; from tissue; host or cells: rabbit skeletal muscle sarcoplasmic reticulum vesicles
T1 sequence (P04191 1-994 isoform P04191-2): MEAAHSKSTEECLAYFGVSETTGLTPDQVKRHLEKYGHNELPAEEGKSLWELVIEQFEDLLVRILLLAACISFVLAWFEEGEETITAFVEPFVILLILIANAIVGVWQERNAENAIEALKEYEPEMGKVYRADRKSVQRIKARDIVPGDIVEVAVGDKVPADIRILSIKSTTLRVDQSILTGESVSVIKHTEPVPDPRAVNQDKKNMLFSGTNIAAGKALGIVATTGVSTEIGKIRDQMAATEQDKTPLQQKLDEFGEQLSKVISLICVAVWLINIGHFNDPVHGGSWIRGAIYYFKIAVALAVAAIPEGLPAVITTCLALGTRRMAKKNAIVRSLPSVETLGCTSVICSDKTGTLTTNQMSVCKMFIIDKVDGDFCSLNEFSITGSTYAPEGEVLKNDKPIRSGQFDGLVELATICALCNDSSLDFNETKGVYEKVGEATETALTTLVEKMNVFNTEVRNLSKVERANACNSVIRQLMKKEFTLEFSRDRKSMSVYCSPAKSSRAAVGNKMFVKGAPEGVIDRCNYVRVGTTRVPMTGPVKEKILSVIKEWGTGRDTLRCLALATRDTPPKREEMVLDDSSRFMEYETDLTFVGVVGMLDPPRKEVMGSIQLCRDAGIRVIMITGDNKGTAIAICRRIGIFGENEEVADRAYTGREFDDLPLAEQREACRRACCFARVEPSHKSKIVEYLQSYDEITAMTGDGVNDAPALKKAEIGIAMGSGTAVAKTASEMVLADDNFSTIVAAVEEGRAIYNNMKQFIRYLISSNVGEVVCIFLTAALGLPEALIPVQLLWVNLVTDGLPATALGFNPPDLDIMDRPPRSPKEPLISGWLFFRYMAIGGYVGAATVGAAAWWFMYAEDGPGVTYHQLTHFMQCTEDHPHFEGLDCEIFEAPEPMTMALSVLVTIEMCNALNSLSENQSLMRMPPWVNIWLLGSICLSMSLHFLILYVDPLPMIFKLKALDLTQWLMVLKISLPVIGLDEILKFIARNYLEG
Method: The primary amine-containing thapsigargin analogs of the invention have endoplasmic reticulum Ca^2+-ATPase inhibitory activity. This activity is measured as the concentration of analog needed to inhibit 50% of this ATPase (IC50). The IC50 of the analogs of the invention is desirably at most 500 nM, preferably at most 200 nM, and more preferably at most 50 nM of analog.
The inhibitory potency of thapsigargin and its analogs was determined as the concentration required to produce 50% inhibition (i.e. IC50) of ^45Ca^2+ uptake to sarcoplasmic reticulum (SR) vesicles prepared from rabbit skeletal muscle by the method of De Meis and Hasselbach (J. Biol. Chem., 246: 4759-4763, 1971). The ^45Ca^2+ uptake assay was as described previously (Christensen, et al., FEBS, 335: 345-348, 1993), with the following modifications: 5 μg/ml of SR protein was incubated at 25EC and free Ca^2+ adjusted to 100 nM using 4 min. uptake time. Under these conditions, Ca^2+ could proceed linearly with time for at least 8 minutes. Measurements of Ca^2+ within TSU cells was determined as described previously (Lin et al., The Prostate, 33:201-207, 1997).
(§1) The IC50 results are mean (n=3)±standard error. The LC50 results are mean (n=5)±standard error. The entry “ND” stands for “not determined”. Clonogenic survival not determined above 10 μM for dBTG. Analogs with −boc have a t-butoxycarbonyl (boc) protected amino group.

TSU-Pr1 cells = assay: Clonogenic survival of TSU-Pr1 cells after 72 hours exposure to TG analogs; assay type: cell-based, human; settings: TSU-Pr1, 72 hours exposure; mean (n=5) ± standard error; read-out: LC50 (concentration needed to kill 50% of clonogenic cells)
Method: The primary amine-containing thapsigargin analogs of the invention have non-specific toxicity toward cells. This toxicity is measured as the concentration of analog needed to kill 50% of clonogenic cells (LC50). The LC50 of the analogs of the invention is desirably at most 20 μM, preferably at most 5 μM, and more preferably at most 500 nM of analog.
Percentage clonogenic survival of TSU-Pr1 (2×10^5 cells) following 72 hours of exposure to varying concentrations of TG analogs was performed as described in Martikainen et al. Cancer Res., 51, 4693-4700 (1991).
as §1
The androgen responsive PSA-producing LNCaP and androgen independent PSA non-producing TSU-Pr1 are human prostate cancer lines were obtained from ATCC (Rockville, Md.) and maintained by serial passage in RPMI 1640 media containing 10% fetal calf serum with 100 units/ml penicillin G, and 100 units/ml streptomycin sulfate (antibiotics from M.A. Bioproducts, Walkerville, Md.) as standard media in 5% CO2/95% air at 37° C. The origins and characteristics of the LNCaP and TSU-Pr1 cell lines are described in Horoszewicz, et al., Cancer Res., 43:1809-1818, (1980)and Iizumi, et al., J. Urol, 137: 1304-1306, (1987).

[2] = target: T2, PSA (prostate specific antigen) (Homo sapiens, UniProt P07288); assay: Cleavage of AMC-labelled peptide substrates by purified PSA (fluorescence of released AMC; Lineweaver-Burke kinetics); assay type: biochemical
T2 construct: PSA was purified from human seminal plasma; from tissue; host or cells: human seminal plasma
T2 sequence (P07288 25-261): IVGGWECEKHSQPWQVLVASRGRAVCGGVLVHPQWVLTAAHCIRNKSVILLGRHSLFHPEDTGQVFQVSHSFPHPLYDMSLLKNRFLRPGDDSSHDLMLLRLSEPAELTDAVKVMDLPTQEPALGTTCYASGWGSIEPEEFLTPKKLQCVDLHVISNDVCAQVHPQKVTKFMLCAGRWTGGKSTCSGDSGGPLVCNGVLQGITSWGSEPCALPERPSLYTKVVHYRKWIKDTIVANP
Method: (§2) The peptides discussed herein were custom synthesized by Enzyme Systems Products (Dublin, Calif.) and, after HPLC separation and purification to >95%, the molecular weights were confirmed by mass spectroscopy. All peptides had morpholinocarbonyl protecting the amino terminus and 7-amino-4-methylcoumarin (AMC) attached via an amide bond to the carboxyl group of the carboxy-terminal amino acid. Peptides were first dissolved in distilled water (5 mM) and then diluted into PSA assay buffer (50 mM Tris/0.1M NaCl pH 7.8). The glutamine-AMC peptide had the amino terminus and side chain amine unprotected and was obtained from Bachem (Torrance, Calif.).
(§3) PSA was purified from human seminal plasma as described in Christensson, et al. Eur. J. Biochem. 194:755-765, (1990). Plasmin, urokinase, tissue plasminogen activator (TPA), human plasma and porcine pancreatic kallikrein and a 1-antichymotrypsin were obtained from Calbiochem (San Diego, Calif.). All other proteases were obtained from Sigma Chemical Co. (St. Louis, Mo.). Mouse serum was obtained from East Acres Biologicals (South Bridge, Mass.). Goat and calf sera were obtained from Gibco BRL (Grand Island, N.Y.). Rat serum was obtained in-house from sacrificed animals. Human serum was obtained from volunteers.
(§4) Cleavage was studied by measuring fluorescence change secondary to AMC release. Fluorescence detection was carried out with a Fluoroskan II 96 well fluorometric plate reader (ICN Biomedicals, Costa Mesa, Calif.), with excitation wavelength 355 nm and emission wavelength 460 nm. Data were collected and analyzed using Deltasoft III software (Biometallics, Princeton, N.J.). All reactions were performed at room temperature by the addition of substrate and proteases into PSA buffer, described below, in a final volume of 200 μL. The results were determined from the initial linear increase of fluorescence and were expressed as the picomoles of AMC released per minute based upon comparison to a standard curve of the fluorescence of known amounts of AMC (i.e., fluorescence was linear form 20 to 300 picomoles of AMC). The data were analyzed by Lineweaver-Burke reciprocal plots to determine the Michaelis-Menten constant (i.e., Km) expressed as the amount of substrate needed to saturate half of the enzyme and the catalytic rate constant (i.e., kcat) expressed as the amount of substrate converted to product per time per amount of enzyme.
(§5) Each assay contains 200 picomoles of the particular protease and 0.2 mM concentration of the particular substrate (i.e., 40,000 picomoles/200 μL of assay volume). The amino acid sequences expressed in one letter amino acid code represent the following amino acid sequences in the three letter amino acid code: EHSSKLQ (Glu-His-Ser-Ser-Lys-Leu-Gln; SEQ ID NO:10), QNKISYQ (Gln-Asn-Lys-Ile-Ser-Tyr-Gln; SEQ ID NO:11), ENKISYQ (Glu-Asn-Lys-Ile-Ser-Tyr-Gln; SEQ ID NO:12), and ATKSKQH (Ala-Thr-Lys-Ser-Lys-Gln-His; SEQ ID NO:13). Determinations listed in the table were carried out with substrates at 0.2 mM concentration in the PSA assay buffer (50 mM Tris/0.1M NaCl pH 7.8). The entry “UD” stands for “undetectable” and means that at most, 0.1 pmole of substrate cleavage per minute per 200 pmole protease took place. Asterisks represent experiments not performed. Abbreviations are as follows: PSA (prostate specific antigen), Chymo (chymotrypsin), Urokin (urokinase), TPA (tissue plasminogen activator), Thromb (thrombin), Kallik (human kallikrein, hK1).
The data in Table 2 are the results of kinetic experiments with the peptide substrates used in Example 1. Experimental details are found in Example 1.
The amino acid sequences expressed in one letter amino acid code represent the following amino acid sequences in the three letter amino acid code: EHSSKLQ (Glu-His-Ser-Ser-Lys-Leu-Gln; SEQ ID NO:10), HSSKLQ (His-Ser-Ser-Lys-Leu-Gln; SEQ ID NO:7), SKLQ (Ser-Lys-Leu-Gln; SEQ ID NO:1), and ATKSKQH (Ala-Thr-Lys-Ser-Lys-Gln-His; SEQ ID NO:13). […]

Elastase = assay: Peptide-AMC cleavage by purified extracellular protease; assay type: biochemical; settings: 0.2 mM substrate, PSA assay buffer pH 7.8
Method: as §2, §3, §4, §5

Plasmin = target: T3, Plasmin (Homo sapiens, UniProt P00747); assay: as above; assay type: biochemical; settings: 0.2 mM substrate, PSA assay buffer pH 7.8
T3 construct: purchased Calbiochem
T3 sequence (P00747 581-810 limits assumed, species assumed): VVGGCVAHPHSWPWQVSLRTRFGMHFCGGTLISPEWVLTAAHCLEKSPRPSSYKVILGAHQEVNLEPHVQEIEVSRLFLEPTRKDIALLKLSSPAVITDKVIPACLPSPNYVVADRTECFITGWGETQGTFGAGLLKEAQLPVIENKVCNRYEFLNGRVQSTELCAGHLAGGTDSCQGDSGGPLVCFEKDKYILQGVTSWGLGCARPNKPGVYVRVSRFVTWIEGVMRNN
T3 sequence (P00747 97-580 partner limits assumed, species assumed): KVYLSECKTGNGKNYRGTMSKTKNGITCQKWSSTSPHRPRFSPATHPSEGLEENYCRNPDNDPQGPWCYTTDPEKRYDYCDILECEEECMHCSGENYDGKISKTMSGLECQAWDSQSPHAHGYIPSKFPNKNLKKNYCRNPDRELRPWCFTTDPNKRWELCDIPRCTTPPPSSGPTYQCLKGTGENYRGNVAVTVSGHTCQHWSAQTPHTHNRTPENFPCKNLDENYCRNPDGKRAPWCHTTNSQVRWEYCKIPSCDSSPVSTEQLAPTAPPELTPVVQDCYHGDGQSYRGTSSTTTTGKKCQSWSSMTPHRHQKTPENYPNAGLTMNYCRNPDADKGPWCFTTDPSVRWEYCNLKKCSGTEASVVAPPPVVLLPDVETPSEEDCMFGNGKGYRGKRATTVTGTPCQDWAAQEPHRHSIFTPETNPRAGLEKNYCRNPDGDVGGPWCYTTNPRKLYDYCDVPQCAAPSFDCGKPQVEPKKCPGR
Method: as §2, §3, §4, §5

Trypsin = assay: as above; assay type: biochemical; settings: 0.2 mM substrate, PSA assay buffer pH 7.8
Method: as §2, §3, §4, §5

chymotrypsin = target: T4, chymotrypsin (Bos taurus, UniProt P00766); assay: as above; assay type: biochemical; settings: 0.2 mM substrate, PSA assay buffer pH 7.8
T4 construct: purchased Sigma Chemical Co
Method: as §2, §3, §4, §5

human kallikrein, hK1 = assay: as above; assay type: biochemical; settings: 0.2 mM substrate, PSA assay buffer pH 7.8
Method: as §2, §3, §4, §5

thrombin = target: T5, thrombin (Homo sapiens, UniProt P00734); assay: as above; assay type: biochemical; settings: 0.2 mM substrate, PSA assay buffer pH 7.8
T5 construct: purchased Sigma Chemical Co
Method: as §2, §3, §4, §5

[3] = target: T6, tissue plasminogen activator (TPA) (Homo sapiens, UniProt P00750); assay: as above; assay type: biochemical; settings: 0.2 mM substrate, PSA assay buffer pH 7.8
T6 construct: purchased Calbiochem
T6 sequence (P00750 36-562, species assumed): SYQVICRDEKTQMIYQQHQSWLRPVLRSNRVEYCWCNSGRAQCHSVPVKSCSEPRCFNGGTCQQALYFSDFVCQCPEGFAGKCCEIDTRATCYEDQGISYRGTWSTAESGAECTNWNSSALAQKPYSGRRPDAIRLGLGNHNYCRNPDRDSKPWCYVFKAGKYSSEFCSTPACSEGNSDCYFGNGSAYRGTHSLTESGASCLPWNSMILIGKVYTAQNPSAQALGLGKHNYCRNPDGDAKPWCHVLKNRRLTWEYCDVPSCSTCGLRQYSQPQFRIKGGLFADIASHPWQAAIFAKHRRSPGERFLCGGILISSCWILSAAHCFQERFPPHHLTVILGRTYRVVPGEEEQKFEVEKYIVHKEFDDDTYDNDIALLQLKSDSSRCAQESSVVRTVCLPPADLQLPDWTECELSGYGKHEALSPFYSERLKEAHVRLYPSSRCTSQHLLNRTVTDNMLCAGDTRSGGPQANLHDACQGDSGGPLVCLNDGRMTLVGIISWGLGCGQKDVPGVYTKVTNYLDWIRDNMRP
Method: as §2, §3, §4, §5

urokinase = target: T7, urokinase (Homo sapiens, UniProt P00749); assay: as above; assay type: biochemical; settings: 0.2 mM substrate, PSA assay buffer pH 7.8
T7 construct: purchased Calbiochem
Method: as §2, §3, §4, §5

[4] = Stability of PSA substrates in serum (AMC release); assay type: in vitro ADME; settings: 0.2 mM substrate
Excerpt: as §3, §4
Because the prodrug can be given systemically via the blood, it is useful to determine the stability of the substrates in sera from a variety of species. The substrates and experimental details are found as described in Example 1.
The amino acid sequences expressed in one letter amino acid code represent the following amino acid sequences in the three letter amino acid code: EHSSKLQ (Glu-His-Ser-Ser-Lys-Leu-Gln; SEQ ID NO:10), QNKISYQ (Gln-Asn-Lys-Ile-Ser-Tyr-Gln; SEQ ID NO:11), ENKISYQ (Glu-Asn-Lys-Ile-Ser-Tyr-Gln; SEQ ID NO:12) and ATKSKQH (Ala-Thr-Lys-Ser-Lys-Gln-His; SEQ ID NO:13). Determinations listed in the table were carried out with substrates at 0.2 mM concentration in the PSA assay buffer (50 mM Tris/0.1M NaCl pH 7.8). AMC is 7-amino-4-methylcoumarin. The human serum used was 100% for each assay. The entry “UD” stands for “undetectable”, and means that not more than 0.01 picomole of substrate per minute was cleaved.

[5] = PSA substrate, PSA assay buffer pH 7.8, Lineweaver-Burke

SMILES	IC50 [1] [µM]	CC50 (TSU-Pr1 cells) [µM]	Picomoles of substrate cleaved/minute/200 pmoles of indicated protease: PSA ([2]; 0.2 mM substrate, PSA assay buffer pH 7.8, room temperature)	Kcat [2, 5] [s⁻¹]	Km [2, 5] [µM]	Picomoles of substrate cleaved/minute/200 pmoles of indicated protease: Elastase (Elastase)	Picomoles of substrate cleaved/minute/200 pmoles of indicated protease: Plasmin (Plasmin)	Picomoles of substrate cleaved/minute/200 pmoles of indicated protease: Trypsin (Trypsin)	Picomoles of substrate cleaved/minute/200 pmoles of indicated protease: Chymo (chymotrypsin)	Picomoles of substrate cleaved/minute/200 pmoles of indicated protease: Kallik (human kallikrein, hK1)	Picomoles of substrate cleaved/minute/200 pmoles of indicated protease: Thromb (thrombin)	Picomoles of substrate cleaved/minute/200 pmoles of indicated protease: TPA [3]	Picomoles of substrate cleaved/minute/200 pmoles of indicated protease: Urokin (urokinase)	picomles AMC released/minute: Calf [4]	picomles AMC released/minute: Fetal Calf [4] [picomoles/minute]	picomles AMC released/minute: Goat [4] [picomoles/minute]	picomles AMC released/minute: Mouse [4] [picomoles/minute]	picomles AMC released/minute: Rat [4] [picomoles/minute]	picomles AMC released/minute: Human ([4]; human serum 100%)
CC=C(C)C(=O)OC1C(C)=C2C(C1OC(=O)CCCCCCC)C(C)(OC(C)=O)CC(OC(=O)C=Cc1ccc(N)cc1)C1(O)C2OC(=O)C1(C)O (stereo not shown) [ACT, 8-O-(4-aminocinnamoyl)-8-O-debutanoylthapsigargin]	0.0187 ± 0.0002	0.1 ± 0.006	–	–	–	–	–	–	–	–	–	–	–	–	–	–	–	–	–
Cc1cc(=O)oc2cc(NC(=O)[C@H](Cc3c[nH]cn3)NC(=O)[C@H](CCC(N)=O)NC(=O)[C@H](CCCCN)NC(=O)[C@H](CO)NC(=O)[C@H](CCCCN)NC(=O)[C@@H](NC(=O)[C@H](C)NC(=O)N3CCOCC3)[C@@H](C)O)ccc12 [ATKSKQH, Ala-Thr-Lys-Ser-Lys-Gln-His] ({Morpholide-CO}-ATKSKQH-{AMC})	–	–	16.0 picomoles/minute/200 pmoles pr	0.0091	310	UD (at most, 0.1 pmole of substrate cleavage per minute per 200 pmole protease took place)	UD (at most, 0.1 pmole of substrate cleavage per minute per 200 pmole protease took place)	UD (at most, 0.1 pmole of substrate cleavage per minute per 200 pmole protease took place)	38.8 picomoles/minute/200 pmoles pr	UD (at most, 0.1 pmole of substrate cleavage per minute per 200 pmole protease took place)	0.2 picomoles/minute/200 pmoles pr	UD (at most, 0.1 pmole of substrate cleavage per minute per 200 pmole protease took place)	UD (at most, 0.1 pmole of substrate cleavage per minute per 200 pmole protease took place)	UD (not more than 0.01 picomole of substrate per minute was cleaved)	1.19	0.35	0.60	4.31	UD (not more than 0.01 picomole of substrate per minute was cleaved)
